# Assay results: patent US6218112A, “Optimization of gene delivery and gene delivery system” (Cobra Therapeutics Limited, priority 1997, dated 2001)
# “Also recorded” adds a separate entry of the source. * marks the point of attachment. Palmitoyl = CCCCCCCCCCCCCCCC(=O)*; Acm = CC(=O)NC*
# How the values were obtained:
# [1] = test system: Tumor Cells; experiment: In vitro transfection with complexes containing lipidated peptides; format: cell-based
# Method: After incubation the cells are lysed and are assayed for gene expression. In the case of the luciferase reporter gene, luciferin and ATP are added to lysed cells and the light emitted is measured with a luminometer (see deWet et al., supra).
# For the data provided in FIG. 8, complexes were assembled as described herein using NBC2 and Lip2 as condensing peptides.
# [2] = test system: plasmid nucleic acid pRSVLuc; experiment: Surface plasmon resonance (BIAcore) binding kinetics of peptides/conjugates to immobilized biotinylated plasmid DNA; settings: apparent rate constant for dissociation; SPR, PBS, 25° C.
# Method: In the examples described below, SPR was detected using the BIAcore system. This machine contained an SPR detector and an integrated microfluidic cartridge which is engineered such that an analyte solution (cationic peptide) is continuously passed over the sensor chip. The sensor chip consists of a glass plate coated with a thin film of gold covered in a layer of carboyxymethyl dextran. The chip used has a dextran layer to which streptavidin is covalently attached. The chip is prepared for use by adding biotinylated nucleic acid which will be bound to the chip via the streptavidin-biotin interaction, and the same chip is used in a series of experiments.
# As material binds to the immobilized nucleic acid molecule on the sensor chip, the SPR angle of plane polarized light shining on the surface of the chip is monitored by the detector. Changes in angle are defined as resonance units (RU) and data are collected every second. Background effects are detected and automatically subtracted by the use of a control flow cell in line with the nucleic acid flow cell.
# A typical sensorgram has three phases: an association phase, an equilibrium phase and a dissociation phase (see FIG. 1). The rise in signal occurs as more peptide binds to the immobilized plasmid DNA until equilibrium conditions are reached. The height of the peak is directly proportional to the mass of peptide bound. If the flow continues with buffer containing no peptide, peptide begins to dissociate from the complex and the resonance signal is reduced. The sensorgram can be used to compute apparent rate constants for each of the three individual processes.
# (1) dC/dt=ka [PF ] [Pmax -PB ]-kd [PB ]
# Measurement of Binding Kinetics by Surface Plasmon Resonance
# A 6 kilobase (kb) plasmid DNA (pRSVLuc) was biotinylated using photoactivatable biotin (Pierce and Warriner) as per manufacturer's instructions.
# A sensor chip with immobilized streptavidin (SA5) was conditioned following manufacturer's instructions, i.e., three one-minute injections of 1 M NaCl: 50 mM NaOH followed by one 1 min injection of 0.5% SDS. Flow rate on the BlAcore sensing device was 20 μl per min, running buffer was phosphate buffered saline (PBS). Flow path was flow cells 1 and 2.
# The flow path was switched to flow cell 2 only and the flow rate was reduced to 10 μl per minute. Biotinylated plasmid at a concentration of […] in 0.5M NaCl was injected for 3 mins.
# Phosphate buffered saline was used as running buffer at a flow rate of 20 μl per minute. The flow path was over flow cells 1 and 2. Flow cell 1 was used as a reference cell. The experiments were carried out at a temperature of 25° C.
# Peptides were injected at various concentrations for three minutes. The injection was followed by a 5 min dissociation phase before the injection port was washed. The sensor chip was regenerated by the injection of 2M NaCl for 1 min. If necessary, this injection was repeated to bring the response back down to baseline before the next peptide sample was injected.
# The data was analysed using the methods described in the handbook (BIAevaluation 2.1. Software Handbook, Pharmacia Biosensor AB, Uppsala, Sweden).
# Essentially the plots were evaluated as follows: The dissociation constant, kd, was determined first. A curve or family of curves (same NBC at different concentrations) were plotted as response (Y) versus time as Ln (Yo/Y) versus time. In the area where the Ln(Yo/Y) curve was linear, a fit of the default dissociation model [AB]=[A]+[B] was made. The association constant, ka, was then calculated by fitting the related association model on that part of the association curve where a plot of In(abs(dY/dt) versus time was linear. KD were approximated by dividing the calculated kd with the calculated ka.
# [3] = without salt at >20 μg/ml
Substance,"transfection efficiency, lipidated peptide with free underivatized peptide ([1]; Lip2 with NBC2, FIG. 8)","transfection efficiency, condensation with lipidated peptide alone ([1]; complete condensation with palmitoyl-NBC2 (Lip2) alone)",kd [2],solubility of complexes [3]
CH3-(CH2)14-CONH-KPKAAKPKKPKKKRKVEKKSPKKAKKPAAC(Acm)SEQ ID NO:11-COOH (Palmitoyl-KPKAAKPKKPKKKRKVEKKSPKKAKKPAAC(Acm)-OH; SMILES CCCCCCCCCCCCCCCC(=O)N[C@@H](CCCCN)C(=O)N1CCC[C@H]1C(=O)N[C@@H](CCCCN)C(=O)N[C@@H](C)C(=O)N[C@@H](C)C(=O)N[C@@H](CCCCN)C(=O)N1CCC[C@H]1C(=O)N[C@@H](CCCCN)C(=O)N[C@@H](CCCCN)C(=O)N1CCC[C@H]1C(=O)N[C@@H](CCCCN)C(=O)N[C@@H](CCCCN)C(=O)N[C@@H](CCCCN)C(=O)N[C@@H](CCCNC(=N)N)C(=O)N[C@@H](CCCCN)C(=O)N[C@H](C(=O)N[C@@H](CCC(=O)O)C(=O)N[C@@H](CCCCN)C(=O)N[C@@H](CCCCN)C(=O)N[C@@H](CO)C(=O)N1CCC[C@H]1C(=O)N[C@@H](CCCCN)C(=O)N[C@@H](CCCCN)C(=O)N[C@@H](C)C(=O)N[C@@H](CCCCN)C(=O)N[C@@H](CCCCN)C(=O)N1CCC[C@H]1C(=O)N[C@@H](C)C(=O)N[C@@H](C)C(=O)N[C@@H](CSCNC(C)=O)C(=O)O)C(C)C) [Lip2],transfection efficiency is augmented; also recorded: more than two orders of magnitude,extremely poor transfection efficiencies,–,–
NH2-KPKAAKPKKPKKKRKVEKKSPKKAKKPAAC(Acm)-COOH (H-KPKAAKPKKPKKKRKVEKKSPKKAKKPAAC(Acm)-OH; SMILES CC(=O)NCSC[C@H](NC(=O)[C@H](C)NC(=O)[C@H](C)NC(=O)[C@@H]1CCCN1C(=O)[C@H](CCCCN)NC(=O)[C@H](CCCCN)NC(=O)[C@H](C)NC(=O)[C@H](CCCCN)NC(=O)[C@H](CCCCN)NC(=O)[C@@H]1CCCN1C(=O)[C@H](CO)NC(=O)[C@H](CCCCN)NC(=O)[C@H](CCCCN)NC(=O)[C@H](CCC(=O)O)NC(=O)[C@@H](NC(=O)[C@H](CCCCN)NC(=O)[C@H](CCCNC(=N)N)NC(=O)[C@H](CCCCN)NC(=O)[C@H](CCCCN)NC(=O)[C@H](CCCCN)NC(=O)[C@@H]1CCCN1C(=O)[C@H](CCCCN)NC(=O)[C@H](CCCCN)NC(=O)[C@@H]1CCCN1C(=O)[C@H](CCCCN)NC(=O)[C@H](C)NC(=O)[C@H](C)NC(=O)[C@H](CCCCN)NC(=O)[C@@H]1CCCN1C(=O)[C@@H](N)CCCCN)C(C)C)C(=O)O) [NBC2],–,–,0.00938 s⁻¹,insoluble
